Source: paper PMC5981617, “Targeted Delivery of Cell Penetrating Peptide Virus-like Nanoparticles to Skin Cancer Cells” (Scientific Reports, 2018)
Counter-ions that a name gives are not always drawn. No end group written: not given here. *: point of attachment. FITC = O=C1OC2(c3ccc(O)cc3Oc3cc(O)ccc32)c2ccc(NC(=S)*)cc21

Columns and labels:
Type in all cases: cell-based, human
A431 cells [1] = test: MTT assay, cell viability in the presence of endocytosis inhibitors; conditions: Cyt D 10 µg/mL, genistein 200 µM, CPZ 6 µg/mL, MβCD 1.5 mM, n = 3
A431 cells [2] = test: Endocytosis inhibitory assay (entry of FITC-peptide, fluorescence microscopy); conditions: 30 min pre-treatment, then FITC-NRPDSAQFWLHH 0.25 mM, 16 h, 37 °C; CPZ 6 µg/mL, MβCD 1.5 mM, Cyt D 10 µg/mL, genistein 200 µM
Procedure: Four endocytosis inhibitors [Cyt D (10 µg/mL; Calbiochem, San Diego, California, USA), CPZ (6 µg/mL; Santa Cruz Biotechnology, Dallas, Texas, USA), MβCD (1.5 mM; Sigma Aldrich, St. Louis, Missouri, USA) and genistein (200 µM; Calbiochem, San Diego, California, USA)] were used to study the energy-dependent endocytosis of peptide […] into A431 cells. The cells (200,000 cells/well) were seeded onto sterile glass coverslips which had been placed in a six-well plate, and incubated at 37 °C for overnight. The medium was then removed and the cells were pretreated with the inhibitors at 37 °C for 30 min. After the pretreatment with inhibitors, FITC-[…] (0.25 mM) was added to the cells and incubated for 16 h at 37 °C in the presence of inhibitors. After removing the medium, the cells were washed, fixed and stained with Hoechst 33342. The cells were mounted onto a glass slide and examined under a fluorescence microscope.

HT29 cells = test: Internalisation of FITC-labelled peptide in cell line with lower EGFr expression; conditions: 0.25 mM, 37 °C, 16 h; HT29 9 × 10^3 EGFr/cell; fluorescence microscopy
Procedure: (§1) A431 and HT29 cell lines (200,000 cells/well) were seeded onto sterile glass coverslips in a six-well plate and incubated overnight at 37 °C. After changing the medium, peptide FITC-[…] (0.25 mM) was added to the cell lines and incubated at 37 °C for 16 h in a CO2 incubator. The cells were then washed, fixed, stained with Hoechst 33342, and viewed under a fluorescence microscope. The amount of phage internalised into A431 and HT29 cells (1 × 10^6 cells) which had been incubated with the purified phage (1 × 10^12 pfu) at 37 °C for 12 h was measured with the phage titration assay as described above.

NHDF cells = test: Internalisation of FITC-labelled peptide, fluorescence microscopy; conditions: 0.25 mM, 37 °C, 16 h
Procedure: (§2) The selective internalisation property of peptide […] was tested on NHDF and A431 cells. These cells (200,000 cells/well) were seeded separately onto sterile glass coverslips which had been placed in a six-well plate, and incubated overnight at 37 °C. After changing the medium, the cells were added with FITC-conjugated peptide (FITC-[…]; 0.25 mM; Mimotopes Pty Ltd, Clayton, Victoria, Australia), and incubated for 16 h at 37 °C. The cells were then washed 3 times with PBS and fixed with paraformaldehyde [3.7% (w/v)]. Hoechst 33342 was added and incubated for 10 min to stain the cell nuclei. The cells were mounted onto a glass slide and observed under a fluorescence microscope.

A431 cells [3] = test: as above; conditions: 0.25 mM, 37 °C, 16 h
Procedure: as §2, §1

Compound	Viability of A431 cells in the presence of inhibitor (A431 cells [1])	Effect of endocytosis inhibitor on internalisation of peptide NRPDSAQFWLHH (green granular appearance) (A431 cells [2])	Internalisation of FITC-labelled peptide into HT29 cells (HT29 cells)	Internalisation of FITC-labelled peptide into NHDF cells (NHDF cells)	Internalisation of FITC-labelled peptide into A431 cells (A431 cells [3])
CN(C)CCCN1c2ccccc2Sc2ccc(Cl)cc21 [CPZ, chlorpromazine hydrochloride]	over 83%	reduced drastically	–	–	–
C=C1[C@@H](C)[C@H]2[C@H](Cc3ccccc3)NC(=O)[C@]23[C@H](OC(C)=O)/C=C/[C@@](C)(O)C(=O)[C@@H](C)C/C=C/[C@H]3[C@@H]1O [Cyt D, cytochalasin D]	over 83%	did not inhibit internalisation	–	–	–
O=c1c(-c2ccc(O)cc2)coc2cc(O)cc(O)c12 [genistein]	over 83%	did not inhibit internalisation	–	–	–
methyl-β-cyclodextrin [MβCD]	over 83%	reduced drastically	–	–	–
{FITC}-NRPDSAQFWLHH	–	–	no significant green fluorescent granules were observed	no significant fluorescent signal was observed	taken up efficiently
